Measurements published in patent US20240158446A1, “CYCLIC COMPOUND HAVING SELECTIVE INHIBITORY ACTION ON KRAS OVER HRAS AND NRAS” (CHUGAI SEIYAKU KABUSHIKI KAISHA, priority 2021, published 2024).
*1 amine or outer side, *2 acyl side, *3 side chain or, on linkers, in order; H or OH if unused. Where a SMILES comes first, the peptide text is derived from it. Bridges are numbered along the chain shown (N, C = ends). [ ]: non-standard residue; d: D form. The star is where a group is joined. hPhe(3-Cl-4-CF3) = N[C@@H](CCc1ccc(C(F)(F)F)c(Cl)c1)C(=O)O; NPrPhe(4-CF3) = CCCN[C@@H](Cc1ccc(C(F)(F)F)cc1)C(=O)O; X4 = CCCN([C@@H](CC(C)C)C(=O)[*:2])[*:1]; NMeGly(cPent) = CN[C@H](C(=O)O)C1CCCC1; NMeChg = CN[C@H](C(=O)O)C1CCCCC1; NMeD = CN[C@@H](CC(=O)O)C(=O)O; NMeL = CN[C@@H](CC(C)C)C(=O)O; Morpholide = C1CN(*)CCO1; Ac4c = NC1(C(=O)O)CCC1; Sar = CNCC(=O)O

Columns and labels:
[1] = tested on: human lung cancer strain NCI-H441; assay: cells; settings: NCI-H441, 96 h, read-out: NCI-H441 IC50 (nM), NCI-H441 cell proliferation, 4 days, CellTiter-Glo;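 also: cell proliferation inhibition after four days measured by CellTiter-Glo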
[2] = molecular target: GDP-bound HRAS wild-type protein (Homo sapiens, UniProt P01112); assay: Binding to HRAS by surface plasmon resonance (SPR), Single Cycle Kinetics; settings: ratio of KD for GDP-bound HRAS wild-type protein to KD for KRAS, SPR
[3] = molecular target: GDP-bound KRAS wild-type protein (Homo sapiens, UniProt P01116); assay: Binding to KRAS by surface plasmon resonance (SPR), Single Cycle Kinetics; settings: SPR, Single Cycle Kinetics, GDP-bound KRAS wild-type protein; read-out: KRAS KD
[4] = molecular target: GDP-bound NRAS wild-type protein (Homo sapiens, UniProt P01111); assay: Binding to NRAS by surface plasmon resonance (SPR), Single Cycle Kinetics; settings: ratio of KD for GDP-bound NRAS wild-type protein to KD for KRAS, SPR
Chain of GDP-bound NRAS wild-type protein (P01111 whole entry): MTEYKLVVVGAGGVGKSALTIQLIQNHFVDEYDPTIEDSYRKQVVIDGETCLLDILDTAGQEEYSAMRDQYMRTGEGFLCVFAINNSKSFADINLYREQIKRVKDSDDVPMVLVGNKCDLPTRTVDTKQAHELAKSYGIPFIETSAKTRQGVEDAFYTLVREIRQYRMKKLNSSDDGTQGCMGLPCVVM

Chain of GDP-bound KRAS wild-type protein (P01116 whole entry): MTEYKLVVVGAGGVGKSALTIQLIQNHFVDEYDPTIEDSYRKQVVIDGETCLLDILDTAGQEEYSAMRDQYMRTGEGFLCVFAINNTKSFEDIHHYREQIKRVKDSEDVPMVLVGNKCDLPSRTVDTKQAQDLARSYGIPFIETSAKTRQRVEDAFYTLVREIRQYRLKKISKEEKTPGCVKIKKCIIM
Chain of GDP-bound HRAS wild-type protein (P01112 whole entry): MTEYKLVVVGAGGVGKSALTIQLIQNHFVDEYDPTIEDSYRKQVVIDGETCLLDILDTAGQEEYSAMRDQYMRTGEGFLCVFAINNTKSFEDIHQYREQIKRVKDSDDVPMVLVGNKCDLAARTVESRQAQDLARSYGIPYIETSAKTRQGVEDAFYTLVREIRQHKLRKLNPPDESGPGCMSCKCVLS

Row | Structure (SMILES) | IC50 [1] | Kd [3] | HRAS/KRAS (KD ratio) [2] | NRAS/KRAS (KD ratio) [4]
1 | CCO[C@@H]1C[C@H]2C(=O)N(C)C3(CCCC3)C(=O)N(C)[C@@H](C3CCCC3)C(=O)N(C)[C@H](C(=O)N(C)C)CC(=O)N(C)[C@@H](CC)C(=O)N[C@@H]([C@@H](C)CC)C(=O)N3CCC[C@H]3C(=O)N(C)[C@H]3C/C=C\CCN(C3=O)[C@@H](Cc3ccc(C)cc3)C(=O)N(C)CC(=O)N[C@@H](CCc3cc(F)c(C(F)(F)F)c(F)c3)C(=O)N2C1 [PP1810] | 4.6 nM | 0.16 nM | B (a compound having 3 or more and less than 10 is denoted as B) | A (a compound having 10 or more and less than 20 is denoted as A)
2 | CC[C@H](C)[C@@H]1NC(=O)[C@H](CC(F)F)N(C)C(=O)C[C@@H](C(=O)N(C)C)N(C)C(=O)[C@H](C2CCCC2)N(C)C(=O)C2(CC(C)(C)C2)NC(=O)[C@@H]2C[C@H](C)CN2C(=O)[C@H](CCc2cc(F)c(C(F)(F)F)c(F)c2)NC(=O)CN(C)C(=O)[C@H](Cc2ccc(C(F)(F)F)cc2)N2CC/C=C\C[C@@H](C2=O)N(C)C(=O)CN(C)C1=O [PP1658] | 3.8 nM | 0.12 nM | A (a compound having 10 or more and less than 20 is denoted as A) | A (a compound having 10 or more and less than 20 is denoted as A)
3 | CCO[C@@H]1C[C@H]2C(=O)NC3(CC(F)(F)C3)C(=O)N(C)[C@@H](C3CCCC3)C(=O)N(C)[C@H](CC)CC(=O)N(C)[C@@H](CC)C(=O)N[C@@H]([C@@H](C)CC)C(=O)N(C)CC(=O)N(C)[C@H]3C/C=C\CCN(C3=O)[C@@H](Cc3ccc(C(F)(F)F)cc3)C(=O)N(C)CC(=O)N[C@@H](CCc3cc(F)c(C(F)(F)F)c(F)c3)C(=O)N2C1 [PP1627] | 22.9 nM | 0.25 nM | A (a compound having 10 or more and less than 20 is denoted as A) | A (a compound having 10 or more and less than 20 is denoted as A)
4 | CC[C@H](C)[C@@H]1NC(=O)[C@H](CC)N(C)C(=O)C[C@@H](C(=O)N(C)C)N(C)C(=O)[C@H](C2CCCC2)N(C)C(=O)C2(CCCC2)N(C)C(=O)[C@@H]2C[C@@H](C)CN2C(=O)[C@H](CCc2cc(F)c(C(F)(F)F)c(F)c2)NC(=O)CN(C)C(=O)[C@H](Cc2ccc(C)cc2)N2CC/C=C\C[C@@H](C2=O)N(C)C(=O)CN(C)C1=O [PP1812] | 7.8 nM | 0.059 nM | A (a compound having 10 or more and less than 20 is denoted as A) | A (a compound having 10 or more and less than 20 is denoted as A)
5 | CCC[C@H]1C(=O)N[C@@H]([C@@H](C)CC)C(=O)N(C)CC(=O)N(C)[C@H]2C/C=C\CCN(C2=O)[C@@H](Cc2ccc(C(F)(F)F)cc2)C(=O)N(C)CC(=O)N[C@@H](CCc2cc(F)c(C(F)(F)F)c(F)c2)C(=O)N2CC(F)(F)C[C@H]2C(=O)NC2(CC(C)(C)C2)C(=O)N(C)[C@@H](C2CCCC2)C(=O)N(C)[C@H](C(=O)N(C)C)CC(=O)N1C [PP1711] | 5 nM | 0.093 nM | B (a compound having 3 or more and less than 10 is denoted as B) | A (a compound having 10 or more and less than 20 is denoted as A)
6 | CC[C@H](C)[C@@H]1NC(=O)[C@H](CC)N(C)C(=O)C[C@@H](C(=O)N(C)C)N(C)C(=O)[C@H](C2CCCC2)N(C)C(=O)C2(CCCC2)N(C)C(=O)[C@@H]2CCCN2C(=O)[C@H](CCc2cc(F)c(C(F)(F)F)c(F)c2)NC(=O)CN(C)C(=O)[C@H](Cc2ccc(C)cc2)N2CC/C=C\C[C@@H](C2=O)N(C)C(=O)CN(C)C1=O [PP1807] | 5 nM | 0.062 nM | B (a compound having 3 or more and less than 10 is denoted as B) | A (a compound having 10 or more and less than 20 is denoted as A)

Second part, led by results:

Row | IC50 [1] | Kd [3] | Structure (SMILES) | HRAS/KRAS (KD ratio) [2] | NRAS/KRAS (KD ratio) [4]
7 | 18.4 nM | 0.25 nM | CCCN1C(=O)CN(C)C(=O)CN(C)C(=O)[C@H]([C@@H](C)CC)NC(=O)[C@H](CC(C)C)N(C)C(=O)C[C@@H](C(=O)N2CCOCC2)N(C)C(=O)[C@H](C2CCCCC2)N(C)C(=O)C2(CCC2)NC(=O)[C@@H]2CCCN2C(=O)[C@H](CCc2ccc(C(F)(F)F)c(Cl)c2)NC(=O)CN(C)C(=O)[C@@H]1Cc1ccc(C(F)(F)F)cc1 [PP1928] ([NMeL]I[Sar][Sar][NPrPhe(4-CF3)][Sar][hPhe(3-Cl-4-CF3)]P[Ac4c][NMeChg][NMeD]-Morpholide; lactam N-11) | B (a compound having 3 or more and less than 10 is denoted as B) | B (a compound having 3 or more and less than 10 is denoted as B)
8 | 83 nM | 0.34 nM | CCCN1C(=O)C[C@@H](C(=O)N2CCOCC2)N(C)C(=O)[C@H](C2CCCC2)N(C)C(=O)C2(CCC2)NC(=O)[C@@H]2CCCN2C(=O)[C@H](CCc2ccc(C(F)(F)F)c(Cl)c2)NC(=O)CN(C)C(=O)[C@H](Cc2ccc(C(F)(F)F)cc2)N(CCC)C(=O)CN(C)C(=O)CN(C)C(=O)[C@H](C(C)C)NC(=O)[C@@H]1CC(C)C [PP1815] ([X4]V[Sar][Sar][NPrPhe(4-CF3)][Sar][hPhe(3-Cl-4-CF3)]P[Ac4c][NMeGly(cPent)][NMeD]-Morpholide; lactam N-11) | B (a compound having 3 or more and less than 10 is denoted as B) | B (a compound having 3 or more and less than 10 is denoted as B)
9 | 9.2 nM | 0.11 nM | CCC[C@H]1C(=O)N[C@@H]([C@@H](C)CC)C(=O)N(C)CC(=O)N(C)[C@H]2C/C=C\CCN(C2=O)[C@@H](Cc2ccc(C(F)(F)F)cc2)C(=O)N(C)CC(=O)N[C@@H](CCc2cc(F)c(C(F)(F)F)c(F)c2)C(=O)N2C[C@H](OCC)C[C@H]2C(=O)NC2(CC(C)(C)C2)C(=O)N(C)[C@@H](C2CCCC2)C(=O)N(C)[C@H](C(=O)N2CCC2)CC(=O)N1C [PP1943] | B (a compound having 3 or more and less than 10 is denoted as B) | A (a compound having 10 or more and less than 20 is denoted as A)
10 | 11.6 nM | 0.097 nM | CCCN(C)C(=O)[C@@H]1CC(=O)N(C)[C@@H](COCC)C(=O)N[C@@H]([C@@H](C)CC)C(=O)N(C)CC(=O)N(C)[C@H]2C/C=C\CCN(C2=O)[C@@H](Cc2ccc(C(F)(F)F)cc2)C(=O)N(C)CC(=O)N[C@@H](CCc2ccc(C(F)(F)F)c(OC)c2)C(=O)N2C[C@H](OCC)C[C@H]2C(=O)NC2(CC(C)(C)C2)C(=O)N(C)[C@@H](C2CCCC2)C(=O)N1C [PP2012] | A (a compound having 10 or more and less than 20 is denoted as A) | AA (a compound having 20 or more is denoted as AA)
11 | 17.6 nM | 0.32 nM | CCCN1C(=O)C[C@@H](C(=O)N(C)C)N(C)C(=O)[C@H](C2CCCC2)N(C)C(=O)C2(CCC2)NC(=O)[C@@H]2C[C@@H](OCC)CN2C(=O)[C@H](CCc2cc(F)c(C(F)(F)F)c(F)c2)NC(=O)CN(C)C(=O)[C@H](Cc2ccc(C(F)(F)F)cc2)N2CC/C=C\C[C@@H](C2=O)N(C)C(=O)CNC(=O)[C@H]([C@@H](C)CC)NC(=O)[C@@H]1CC(C)C [PP1826] | A (a compound having 10 or more and less than 20 is denoted as A) | A (a compound having 10 or more and less than 20 is denoted as A)
12 | 10.3 nM | 0.11 nM | CC[C@H](C)[C@@H]1NC(=O)[C@H](C2CCC2)N(C)C(=O)C[C@@H](C(=O)N(C)C)N(C)C(=O)[C@H](C2CCCC2)N(C)C(=O)C2(CC(C)(C)C2)NC(=O)[C@@H]2C[C@H](C)CN2C(=O)[C@H](CCc2ccc(C(F)(F)F)c(OC)c2)NC(=O)CN(C)C(=O)[C@H](Cc2ccc(C(F)(F)F)cc2)N2CC/C=C\C[C@@H](C2=O)N(C)C(=O)CN(C)C1=O [PP2011] | A (a compound having 10 or more and less than 20 is denoted as A) | A (a compound having 10 or more and less than 20 is denoted as A)
13 | 13.4 nM | 0.11 nM | CCCN(C)C(=O)[C@@H]1CC(=O)N(C)[C@@H](CCOC)C(=O)N[C@@H]([C@@H](C)CC)C(=O)N(C)CC(=O)N(C)[C@H]2C/C=C\CCN(C2=O)[C@@H](Cc2ccc(C(F)(F)F)cc2)C(=O)N(C)CC(=O)N[C@@H](CCc2ccc(C(F)(F)F)c(OC)c2)C(=O)N2C[C@H](OCC)C[C@H]2C(=O)NC2(CC(C)(C)C2)C(=O)N(C)[C@@H](C2CCCC2)C(=O)N1C [PP1975] | A (a compound having 10 or more and less than 20 is denoted as A) | A (a compound having 10 or more and less than 20 is denoted as A)
14 | 7.8 nM | 0.055 nM | CCCO[C@H](C)[C@@H]1NC(=O)[C@H](CC(C)C)N(C)C(=O)C[C@@H](C(=O)N(C)C)N(C)C(=O)[C@H](C2CCCC2)N(C)C(=O)C2(CC(C)(C)C2)NC(=O)[C@@H]2C[C@@H](OCC)CN2C(=O)[C@H](CCc2cc(F)c(C(F)(F)F)c(F)c2)NC(=O)CN(C)C(=O)[C@H](Cc2ccc(C(F)(F)F)cc2)N2CC/C=C\C[C@@H](C2=O)N(C)C(=O)CN(C)C1=O [PP1921] | A (a compound having 10 or more and less than 20 is denoted as A) | A (a compound having 10 or more and less than 20 is denoted as A)
